Experimental data reported in patent US20210395696A1, “ISOLATED NASOPHARYNGEAL CARCINOMA CELLS AND DERIVATIVES PREPARED THEREOF” (INSTITUTE FOR MEDICAL RESEARCH, priority 2018, published 2021).

Legend:
[1] = system: gfp-luc2-labelled PDX cells (NPC), metastatic model; assay: Drug testing in metastatic tumour model of gfp-luc2-labelled PDX (intra-cardiac injection); type: in vivo, NSG mice; conditions: metastatic model (left ventricle injection); 2 mg/kg i.p. weekly for 3 weeks; bioluminescence imaging
Procedure: (§1) All experiments were performed in accordance with national regulations and were approved by the AC UC of Ministry of Health, Malaysia. NSG mice, 6-8 weeks old were anaesthetized using Ketamine-Xylazine (100 mg/ml and 10 mg/ml).
(§2) To test the effect of drug on tumour growth inhibition, subcutaneous and/or metastatic model were used. For subcutaneous model, 2×10^5 cells of gfp-luc2 cells were resuspended in RPMI and mixed with matrigel at 1:1 ratio and injected into the right flank. For metastatic model, 2×10^5 cells of gfp-luc2 cells were resuspended in 100 μl of RPMI and injected into left ventricle. Weekly bioluminescence imaging (BLI) were carried out to monitor the progress of tumour growth using VIS Spectrum.
(§3) When tumour volume reached to 50-150 mm^3 or once the signal intensity reached 1×10^4 (average radiance, p/sec/cm^2/sr) mice were randomised into control or treatment group. Treatment commenced 35 days post inoculation. Mice were treated with vehicle (0.9% NaCl) or cisplatin (2 mg/kg) via intraperitoneal (i.p.) injection, weekly for 3 weeks. Tumour volume was measured thrice weekly using callipers and BLI was carried out weekly. Mice were observed daily for general wellbeing and tumour burden.

[2] = system: gfp-luc2-labelled PDX cells (NPC), subcutaneous model; assay: Drug testing in subcutaneous tumour model of gfp-luc2-labelled PDX; type: in vivo, NSG mice; conditions: 2 mg/kg i.p. weekly for 3 weeks, bioluminescence imaging
Procedure: as §1, §2, §3

N.N.[Cl][Pt][Cl] [cisplatin]
tumour response as measured by the luminescence signals intensity [1]: tumour regression
tumour response as measured by the luminescence signals intensity [2]: tumour regression
